Here are results for 2 compounds from PMC4286194 (Biochemical Journal, 2015).

The target in one test is T1, TSSK1 (Homo sapiens, UniProt Q9BXA7).
T1 sequence (Q9BXA7 1-367): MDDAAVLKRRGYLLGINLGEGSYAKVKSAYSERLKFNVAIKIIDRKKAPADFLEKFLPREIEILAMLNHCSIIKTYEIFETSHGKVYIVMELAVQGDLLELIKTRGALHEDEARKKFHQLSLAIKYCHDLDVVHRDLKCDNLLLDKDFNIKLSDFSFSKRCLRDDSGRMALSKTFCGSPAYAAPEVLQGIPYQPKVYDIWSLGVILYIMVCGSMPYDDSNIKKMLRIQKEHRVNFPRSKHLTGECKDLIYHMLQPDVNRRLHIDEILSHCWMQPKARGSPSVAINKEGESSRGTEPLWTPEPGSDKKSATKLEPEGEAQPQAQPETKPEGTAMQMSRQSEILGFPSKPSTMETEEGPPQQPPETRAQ
As to the kind of experiment: Kinase profiling. The format is biochemical.

The next test deals with PKA (Homo sapiens, UniProt P17612). Put plainly: Kinase profiling. The format is biochemical.
Test [1] has as its system Bone-marrow-derived macrophages. Put plainly: TLR signalling immunoblots (MAPKs, MSK1/2, CREB, IKKs, TBK1). The format is cell-based, mouse. The settings on record: for Kinetics of activation of MAPKs including ERK1/2 and p38α/β: 3 μM bosutinib or 0.3 μM dasatinib, LPS or Pam3CSK4; for TLR-stimulated phosphorylation of ERK1/2, JNK1/2, p38α/β MAPKs, MSK1/2, IKKα/β, TBK1 and their direct substrates: 3 μM bosutinib, 0.3 μM dasatinib or 0.5 μM HG-9-91-01. For orientation: Immunoblotting shows a protein as a band on a membrane.
Method: Cells were extracted in lysis buffer [50 mM Tris/HCl, pH 7.4, 1 mM EDTA, 1 mM EGTA, 50 mM NaF, 5 mM sodium pyrophosphate, 10 mM sodium β-glycerol 1-phosphate, 1 mM DTT, 1 mM sodium orthovanadate, 0.27 M sucrose, 1% (v/v) Triton X-100, 1 μg/ml aprotinin, 1 μg/ml leupeptin and 1 mM PMSF]. Cell extracts were clarified by centrifugation and protein concentrations were determined using the Bradford assay. To immunoprecipitate endogenous CRTC3, 1 mg of cell extract was incubated with 5 μg of anti-CRTC3 [13] covalently cross-linked on to Protein G–Sepharose. Immune complexes were washed three times with lysis buffer, eluted in 1% SDS and separated by SDS/PAGE. To detect proteins in cell lysates, 20 μg of protein extract was separated by SDS/PAGE. After transfer to PVDF membranes, proteins were detected by immunoblotting and visualized by treating the blots with ECL (GE Healthcare) followed by autoradiography.

Another test deals with S6K1 (Homo sapiens, UniProt P23443). As to the kind of experiment: Kinase profiling. The format is biochemical.
Chain of S6K1 (P23443 whole entry): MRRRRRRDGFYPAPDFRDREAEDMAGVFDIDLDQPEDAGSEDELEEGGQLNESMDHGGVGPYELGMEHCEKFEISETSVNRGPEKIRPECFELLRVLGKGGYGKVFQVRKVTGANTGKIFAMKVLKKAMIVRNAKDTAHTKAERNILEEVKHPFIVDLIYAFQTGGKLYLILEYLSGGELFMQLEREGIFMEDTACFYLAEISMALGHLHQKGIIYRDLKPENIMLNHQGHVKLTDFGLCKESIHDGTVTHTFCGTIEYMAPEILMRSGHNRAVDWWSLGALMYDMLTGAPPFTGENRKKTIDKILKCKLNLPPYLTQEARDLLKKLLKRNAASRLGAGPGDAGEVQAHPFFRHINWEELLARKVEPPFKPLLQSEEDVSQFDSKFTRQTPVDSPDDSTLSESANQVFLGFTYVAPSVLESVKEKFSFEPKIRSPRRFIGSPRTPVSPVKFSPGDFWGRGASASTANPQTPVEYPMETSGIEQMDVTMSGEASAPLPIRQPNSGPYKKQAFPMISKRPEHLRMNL
The next test addresses T2, PRAK (Homo sapiens, UniProt Q8IW41).
T2 sequence (Q8IW41 1-473): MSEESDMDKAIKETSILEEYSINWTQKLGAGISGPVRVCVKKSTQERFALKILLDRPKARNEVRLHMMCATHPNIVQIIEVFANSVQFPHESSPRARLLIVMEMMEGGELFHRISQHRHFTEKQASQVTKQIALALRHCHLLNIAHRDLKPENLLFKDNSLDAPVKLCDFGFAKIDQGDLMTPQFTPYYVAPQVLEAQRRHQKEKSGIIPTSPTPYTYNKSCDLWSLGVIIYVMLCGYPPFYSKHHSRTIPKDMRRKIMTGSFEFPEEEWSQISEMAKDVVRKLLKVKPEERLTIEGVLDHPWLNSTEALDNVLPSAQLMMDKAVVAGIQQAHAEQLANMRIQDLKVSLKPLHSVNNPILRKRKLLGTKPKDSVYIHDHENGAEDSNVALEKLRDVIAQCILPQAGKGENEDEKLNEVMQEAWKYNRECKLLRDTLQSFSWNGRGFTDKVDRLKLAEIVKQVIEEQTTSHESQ
Put plainly: Kinase profiling. The format is biochemical.

Another test concerns the target T3, ULK2 (Homo sapiens, UniProt Q8IYT8).
T3 sequence (Q8IYT8 1-1036): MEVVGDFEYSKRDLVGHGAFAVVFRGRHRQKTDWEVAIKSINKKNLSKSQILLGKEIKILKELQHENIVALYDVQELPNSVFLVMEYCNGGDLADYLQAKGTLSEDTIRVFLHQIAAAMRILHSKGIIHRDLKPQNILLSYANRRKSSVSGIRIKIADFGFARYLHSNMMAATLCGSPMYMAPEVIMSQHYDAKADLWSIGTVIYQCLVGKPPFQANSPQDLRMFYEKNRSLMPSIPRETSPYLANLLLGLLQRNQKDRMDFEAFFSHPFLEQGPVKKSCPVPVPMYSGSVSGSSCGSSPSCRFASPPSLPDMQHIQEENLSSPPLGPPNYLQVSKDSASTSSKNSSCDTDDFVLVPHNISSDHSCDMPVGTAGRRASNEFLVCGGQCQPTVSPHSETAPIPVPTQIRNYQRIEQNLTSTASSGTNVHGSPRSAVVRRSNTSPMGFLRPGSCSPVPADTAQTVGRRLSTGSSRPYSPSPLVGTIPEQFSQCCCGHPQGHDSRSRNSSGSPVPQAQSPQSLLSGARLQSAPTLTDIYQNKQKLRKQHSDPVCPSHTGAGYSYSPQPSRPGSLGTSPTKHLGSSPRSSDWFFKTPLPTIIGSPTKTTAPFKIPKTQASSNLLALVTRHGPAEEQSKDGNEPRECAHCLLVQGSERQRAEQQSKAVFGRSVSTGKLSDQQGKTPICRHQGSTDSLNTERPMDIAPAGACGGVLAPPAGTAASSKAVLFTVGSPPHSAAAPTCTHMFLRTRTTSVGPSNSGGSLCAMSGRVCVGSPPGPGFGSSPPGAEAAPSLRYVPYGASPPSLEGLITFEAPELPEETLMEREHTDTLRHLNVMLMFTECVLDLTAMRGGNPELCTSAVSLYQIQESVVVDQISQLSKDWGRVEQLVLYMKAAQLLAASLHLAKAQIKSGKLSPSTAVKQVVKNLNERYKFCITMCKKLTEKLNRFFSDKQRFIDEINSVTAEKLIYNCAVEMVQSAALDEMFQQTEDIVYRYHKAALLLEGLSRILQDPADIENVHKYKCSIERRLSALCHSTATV
Put plainly: Kinase profiling. The format is biochemical.

Test [2] deals with RAW264.7 macrophages expressing HA-SIK2[T96Q]. Put plainly: IL-10 and Nurr77 mRNA in macrophages expressing drug-resistant SIK2. The format is cell-based. The following applies: cells expressing drug-resistant SIK2[T96Q]; drug 1 h, LPS 1 h. The method, then: (§1) Primary macrophages were generated by differentiating bone marrow from 6- to 12-week-old C57BL/6 mice for 7 days in Dulbecco's modified Eagle's medium (DMEM) supplemented with 5 ng/ml recombinant M-CSF (R&D systems), 2 mM glutamine, 10% FBS, penicillin and streptomycin. Bone-marrow-derived macrophages were differentiated on non-tissue-culture-treated plastic, harvested and replated at a density of 100000 cells/cm^2 per 0.1 ml on tissue culture-treated plastic in fresh medium before stimulation on day 8. RAW264.7 cells were cultured in DMEM containing 10% FBS, 2 mM glutamine and penicillin and streptomycin. […] Cells were treated for 1 h with or without inhibitors and then stimulated for up to 24 h with either 1 μg/ml Pam3CSK4 or 100 ng/ml LPS.
(§2) mRNA was extracted from cells using the MicroElute Total RNA kit following the manufacturers’ instructions (Omega Bio-Tek). cDNA was generated from 0.5 μg of total RNA using the iScript cDNA synthesis kit and quantified by quantitative real-time PCR (qPCR) using the SsoFast EvaGreen Supermix on a CFX384 real-time system (Bio-Rad Laboratories). The relative expression of each gene was calculated from CT values using the Pfaffl method and was normalized against the mRNA levels of housekeeping genes including 18S RNA and GAPDH.

In test [3] the test system is RAW264.7 macrophages expressing HA-SIK2-WT. As to the kind of experiment: IL-10 and Nurr77 mRNA in macrophages expressing wild-type SIK2. The format is cell-based. The settings on record: cells expressing wild-type SIK2; drug 1 h, LPS 1 h. On the procedure:
as §1, §2

Usually remaining activity stands for the signal under treatment as a percentage of the control signal. Turning to `COc1cc(Nc2c(C#N)cnc3cc(OCCCN4CCN(C)CC4)c(OC)cc23)c(Cl)cc1Cl` [Bosutinib, bosutinib], the remaining activity at 0.1 µM on TSSK1 was found to be 67 ± 1%; at PKA, 111 ± 16%; on S6K1 it was 98 ± 1%; at PRAK, 97 ± 2%; at ULK2, 78 ± 10%. Moreover, the remaining activity at 1 µM was determined as 22 ± 2% on TSSK1; 105 ± 7% at PKA; 86 ± 2% on S6K1; 125 ± 1% at PRAK; 37 ± 1% on ULK2. The “Kinetics of activation of MAPKs including ERK1/2 and p38α/β” value in test [1] was “no effect”. Also, the “TLR-stimulated phosphorylation of ERK1/2, JNK1/2, p38α/β MAPKs, MSK1/2, IKKα/β, TBK1 and their direct substrates” value in test [1] is on record as “occurred normally”. The “LPS-stimulated CREB-dependent gene transcription including IL-10 and Nurr77” value in test [2] is “little effect”; in test [3], “strongly potentiate”.
Turning to `Cc1nc(Nc2ncc(C(=O)Nc3c(C)cccc3Cl)s2)cc(N2CCN(CCO)CC2)n1` [Dasatinib], the remaining activity at 0.1 µM on TSSK1 came to 106 ± 11%; at PKA, 110 ± 12%; on S6K1, 108 ± 3%; at PRAK, 129 ± 14%; at ULK2, 101 ± 3%. The remaining activity at 1 µM amounted to 113 ± 3% at TSSK1; 121 ± 27% on PKA; 113 ± 11% on S6K1; 128 ± 7% at PRAK; 91 ± 3% at ULK2. The “Kinetics of activation of MAPKs including ERK1/2 and p38α/β” value in test [1] is reported as “no effect”. Also, in test [1], the “TLR-stimulated phosphorylation of ERK1/2, JNK1/2, p38α/β MAPKs, MSK1/2, IKKα/β, TBK1 and their direct substrates” value is “occurred normally”. Further, the “LPS-stimulated CREB-dependent gene transcription including IL-10 and Nurr77” value in test [2] was “little effect”; in test [3] it was “strongly potentiate”.
